# According to US11299453B2 (Universität zu Köln, priority 2017, dated 2022):
# Key:
# [1] = test system: murine αPIG-AT25 iPSCs, αPIG44-D3 ESCs and R1 ESCs; test: Cell viability (PrestoBlue), results pooled over murine PSC lines; assay type: cell-based; details: 40 μM, 72 h
# Excerpt: (§1) The transgenic murine induced pluripotent stem cell (miPSC) line αPIG-AT25 was generated from the miPSC line TiB7.4 as described in Fatima A et al., Stem Cell Res. 2016 Sep.; 17(2):266-272. The murine embryonic stem cell (ESC) line αPIG44-D3 was equally derived from D3 ESC line. Both transgenic mPSC lines express the IRES-linked genes encoding puromycin N-acetyl-aminotransferase (PAC) and enhanced green fluorescent protein (eGFP) which are under the control of cardiac alpha myosin heavy chain (α-MHC) promoter. They were cultured on mitomycin-inactivated mouse embryonic fibroblasts (MEF) in maintenance medium composed of Dulbecco's minimal essential medium (DMEM) with GlutaMAX (Life Technologies, Carlsbad, USA) supplemented with 15% fetal bovine serum (FBS, Sigma-Aldrich, St. Louis, USA), 1× non-essential amino acids (NEEA, Life Technologies), 50 μM β-mercaptoethanol (β-ME, Life Technologies) and 1000 U/ml of murine leukemia inhibitory factor (mLIF, ORF Genetics, Kopavogur, Iceland). Cell passaging was performed every 2-3 days by dissociating the cells with 0.05% trypsin-EDTA (Life Technologies) and seeding 1-2×10^4 cells/cm^2. The wild type mESC line R1 was cultured on cell culture plates coated with 0.1% gelatin (Sigma-Aldrich) and maintained like the transgenic mPSCs.
# (§2) Serial dilutions of DMSO stock solutions of PluriSIn #1 (Sigma-Aldrich, catalog number SML0682) or one of small molecules SM1-SM10, were prepared from 20 mM stock solutions with cell culture medium. Murine PSCs were dissociated with 0.05% trypsin-EDTA, seeded on 0.1% gelatin-coated 96-well plates with a density of 5000 cells/well and cultured in maintenance medium supplemented with 1000 U/ml of mLIF. After 1 day, cells were incubated with 40 μM PluriSIn #1 and derivatives for 72 h or with 0.01-25 μM SMs for 48 h, respectively. For treatment of corresponding PSC-derived CMs with SMs, puromycin-selected miPSC-CMs from day 14 of differentiation were dissociated with 0.25% trypsin-EDTA as described above and plated on 96-well plates (5×10^4 cells/well) which were pre-coated with 5 μg/ml fibronectin (PromoCell, Heidelberg, Germany). After culturing miPSC-CMs with 8 μg/ml puromycin for 2 more days, they were incubated in differentiation medium supplemented with 0.1-100 μM of SMs for 48-72 h. Following small molecule treatment, cell viability was determined with PrestoBlue cell viability reagent (Life Technologies). To this end, cells were washed with PBS (with calcium and magnesium, Life Technologies) and incubated with PrestoBlue reagent diluted in cell culture medium for 40 min at 37° C.
# (§3) Fluorescence intensities correlating with the number of viable cells in the wells were measured in black flat-bottom 96-well plates (Greiner Bio-One, Kremsmünster, Austria) with a GeniosPro microplate reader (Tecan, Männedorf, Schweiz).
# To confirm the cytotoxicity of the compounds to PSCs, toxicity test were also run with murine ESC lines αPIG44-D3 and R1, and for comparison with αPIG-AT25 murine iPSC line. The cells were incubated for 48 h with compounds SM1, SM2, SM4, SM5, SM6 and SM8 in concentrations of 0.01 μM and 10 μM. Cell culture was performed as described above. Experiments were run in quadruplicate and negative and positive control cells were treated with 0.05% DMSO or 8 μg/ml puromycin, respectively. Cell viability was determined using PrestoBlue cell viability reagent.
# Murine αPIG-AT25 iPSCs, αPIG44-D3 ESCs and R1 ESCs were incubated with 40 μM PluriSIn #1 (Sigma-Aldrich, catalog number SML0682) for 72 h. Cell culture was performed as described above for determination of the compounds. Experiments were run in quadruplicate and negative and positive control cells were treated with 0.08% DMSO or 8 μg/ml puromycin, respectively. The cell viability was determined using PrestoBlue cell viability reagent. […]
# [2] = test system: human pluripotent stem cells; details: exposure for 48 hours; cited from earlier work
# teratoma formation = details: after transplanting 1 million cells into immunodeficient mice; cited from earlier work
# murine αPIG-AT25 iPSCs = test: Cell viability (PrestoBlue) of murine iPSCs after compound treatment; assay type: cell-based; details: 48 h; for toxicity to miPSCs (in words): 0.1-25 μM; for concentration dependence of effect on miPSC viability: 0.1, 1, 10 and 25 μM
# Excerpt: as §1, §2, §3
# IC50 values were determined by regression analysis of dose-response curves upon logarithmic transformation. Microscopic images of PSCs were taken with a Zeiss Axiovert 100 inverted microscope and GFP images of CMs were captured with a Zeiss Axiovert 200M fluorescence microscope (both Carl Zeiss, Oberkochen, Germany) and analyzed with Zeiss Axiovision 4.5 software (Carl Zeiss).
# The cytotoxicity of the compounds according to formulas SM1 to SM10 to pluripotent stem cells (PSCs) was determined in a population of murine αPIG-AT25 iPSCs, which were incubated for 48 h with compounds SM1 to SM10 in concentrations of 0.1 μM, 1 μM, 10 μM and 25 μM. Cell culture was performed as described above. Experiments were run in quadruplicate and negative and positive control cells were treated with 0.125% DMSO or 8 μg/ml puromycin, respectively. The cell viability was determined using PrestoBlue cell viability reagent. […]
# [3] = test system: human neural progenitor cells derived from the human iPSC line Royan-hiPSC4; test: Cell viability (PrestoBlue) of human iPSC-derived neural progenitor cells; assay type: cell-based; details: 1 μM, 72 h of treatment
# Protocol: To confirm the cytotoxicity of the compounds to PSCs, toxicity tests were also run with human neural progenitor cells (passage 20) derived from the human iPSC line Royan-hiPSC4 (RSCB0082). The cells were incubated for 24 h, 48 h and 72 h with compounds SM20, SM21, SM22 and SM23 in concentrations of 1 μM, 3 μM, 10 μM and 25 μM. Cell culture was performed as described above except that Koch medium was used. Experiments were run in quadruplicate and negative and positive control cells were treated with 0.001% DMSO or 0.1 μM, 1 μM, 10 μM and 25 μM of SM6, respectively. Cell viability was determined using PrestoBlue cell viability reagent.
# [4] = test system: murine αPIG-AT25 iPSC-CM monolayers
compound,measurement,setting,value
O=C(NNc1ccccc1)c1ccncc1 [PluriSIn #1],"reduction of cell viability, on average over the three murine PSC lines",[1],51.32±10.86%
same,removal of human pluripotent stem cells from the culture,[2],successfully removed human pluripotent stem cells from the culture
same,teratoma formation,teratoma formation,prevented teratoma formation
"CN(Cc1cccc(-c2ccccc2)c1O)[C@@H]1CCCC[C@H]1N(C)Cc1cccc(-c2ccccc2)c1O [SM3, (1R,2R)-N,N′-dimethyl-N,N′-di[(2-hydroxy-3-phenyl)-benzyl]-1,2-diaminocyclohexane]",toxicity to miPSCs (in words),murine αPIG-AT25 iPSCs,did not
"CC(C)(C)c1cc(C(=O)N[C@@H]2CCCC[C@H]2NC(=O)c2cc(C(C)(C)C)cc(C(C)(C)C)c2O)c(O)c(C(C)(C)C)c1 [SM7, (1R,2R)-N,N′-di[(2-hydroxy-3,5-di-tert.- butyl)benzoyl]-1,2-diaminocyclohexane]",toxicity to miPSCs (in words),murine αPIG-AT25 iPSCs,did not
"CN(Cc1cc(C(C)(C)C)cc(C(C)(C)C)c1O)[C@@H]1CCCC[C@H]1N(C)Cc1cc(C(C)(C)C)cc(C(C)(C)C)c1O [SM9, (1R,2R)-N,N′-dimethyl-N,N′-di[(2-hydroxy-3,5-di-tert.- butyl)benzyl]-1,2-diaminocyclohexane]",concentration dependence of effect on miPSC viability,murine αPIG-AT25 iPSCs,did not show a concentration dependent effect
same,toxicity to miPSCs (in words),murine αPIG-AT25 iPSCs,did not
"CC(C)(C)c1cc(CN[C@@H]2CCCC[C@H]2NCc2cc(C(C)(C)C)cc(C(C)(C)C)c2O)c(O)c(C(C)(C)C)c1 [SM10, (1R,2R)-N,N′-di[(2-hydroxy-3,5-di-tert.- butyl)benzyl]-1,2-diaminocyclohexane]",concentration dependence of effect on miPSC viability,murine αPIG-AT25 iPSCs,did not show a concentration dependent effect
same,toxicity to miPSCs (in words),murine αPIG-AT25 iPSCs,did not
"Oc1c(CN[C@@H]2CCCC[C@H]2NCc2cccc(-c3c(F)c(F)c(F)c(F)c3F)c2O)cccc1-c1c(F)c(F)c(F)c(F)c1F [SM20, (1R,2R)-N,N′-di[(2-hydroxy-3-penta-fluorophenyl)-benzyl]-1,2-diaminocyclohexane]",toxicity to miPSCs (in words),murine αPIG-AT25 iPSCs,good toxicity
same,NPCs killed,[3],eliminated all cells
"c1ccc2[nH]c(CN[C@@H]3CCCC[C@H]3NCc3cc4ccccc4[nH]3)cc2c1 [SM21, (1R,2R)-N,N′-di[(2-indolyl)methyl]-1,2-diaminocyclohexane]",toxicity to miPSCs (in words),murine αPIG-AT25 iPSCs,good toxicity
"Oc1c(CN[C@@H]2CCCC[C@H]2NCc2cccc(-c3cccs3)c2O)cccc1-c1cccs1 [SM23, (1R,2R)-N,N′-di([2-hydroxy-3-(2-thienyl)]-benzyl)-1,2-diaminocyclohexane]",toxicity to miPSCs (in words),murine αPIG-AT25 iPSCs,good toxicity
same,NPCs killed,[3],eliminated all cells
N.N.[Cl][Pt][Cl] [cisplatin],apoptotic CMs (cleaved caspase-3 staining),[4],presence of apoptotic CMs
same,sarcomere structure (α-actinin staining),[4],degradation of the sarcomere structure
